This test has as its system Herpes Zoster (varicella zoster virus). Kind of test: Valaciclovir prophylaxis against HZ activation in patients receiving CellProtect infusions. The class given is in vivo, human. To be noted: 500 mg twice daily for 6 months following infusions; patients 110 and 111; within 12 months following prophylaxis. How it is done: Since the development of HZ was clearly associated with the NK cell infusions in the first four patients the last two patients (110 and 111) were treated with high dose valaciclovir, 500 mg twice daily for 6 months following the infusions.

The values that follow come from patent US20210186977A1, “MEDICAL USES” (priority 2018, published 2021).

In the case of `CC(C)[C@H](N)C(=O)OCCOCn1cnc2c(=O)[nH]c(N)nc21` [valaciclovir], the “Signs of HZ activation” value was “did not show any signs of HZ activation”.
